Data from patent publication US20250289786A1, “CHLORINATED MONOCARBONYL CURCUMIN COMPOUNDS, PREPARATION METHOD, AND APPLICATION” (Southwest Medical University, priority 2024, published 2025).

Assay: ABTS free radical capture ability
Assay type: biochemical
Conditions: 20 min reaction in the dark
Method: 66.2 mg of K2S2O8 was weighed and placed in a 100 mL volumetric flask, pure water was added to the scale line to prepare a 2.45 mmol/L K2S2O8 solution. 192 mg of ABTS was accurately weighed and placed in a 25 mL volumetric flask, and the newly prepared K2S2O8 solution was added for dissolving and constant volume dilution, after standing in the dark for 20 h, the ABTS mother liquor was obtained. Before use, to make the measured value more accurate, the ABTS mother liquor needs to be diluted with a PBS solution of pH7.4 until the absorbance range of the ABTS working solution at 734 nm is 0.70±0.02.
Drug concentration screening: To avoid the complete removal of free radicals by excessive drug concentration and the inability to compare the ability to capture ABTS free radicals, a preliminary screening of drug concentration is required before the formal test. A gradient concentration of compound solution was prepared, and a gradient concentration of Vit C solution was prepared as a positive control. A total of 450 μL of ABTS working solution was accurately absorbed into a 1.5 mL EP tube, and 150 μL of the gradient solution of each group of drugs was added, after 20 min of reaction in the dark, 150 μL of the reaction solution was taken and placed in a 96-well plate, the absorbance was measured by a microplate reader. Three duplicate wells were set for each concentration, and the drug concentration with absorbance between 0.2-0.7 was selected for subsequent determination.
Determination operation: After the drug concentration screening was completed, 7 concentration gradient groups were set within this concentration range. A total of 450 μL of ABTS working solution was accurately absorbed into a 1.5 mL EP tube, and 150 μL of the gradient solution of each group of drugs was added. After 20 min of reaction in the dark, 150 μL of the reaction solution was taken and placed in a 96-well plate, the absorbance was measured by a microplate reader. Three duplicate wells were set for each concentration, the positive control group was a gradient solution of Vit C, and the blank control group was an equal volume of anhydrous ethanol.

COc1cc(/C=C2\CNC/C(=C\c3cc(Cl)c(O)c(OC)c3)C2=O)cc(Cl)c1O [CAK06, 3,5-bis ((E)-3-chloro-4-hydroxy-5-methoxybenzylidene) piperidin-4-one]
IC50 values of ABTS captured: 44.95 µg/mL
